Test results: patent US11458123B2 (Arvinas, Inc., priority 2016, dated 2022)

These compounds were tested on tau protein (assay: Tau protein in vitro degradation assay (Western blot, Tau-13 antibody)). Details: SK-N-SH cells; 72 hours of incubation; tested at 300 nM, 100 nM, 33 nM and 11 nM; Western blot, Tau-13 antibody.
Format: cell-based, human
In short: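 SK-N-SH cells, seeded ≥18 h beforehand, were incubated 72 h with tau PROTACs at 1000, 300 and 100 nM or at 300, 100, 33 and 11 nM. Lysates in protease-inhibitor buffer were resolved by SDS-PAGE; tau quantified by Western blot with Tau-13 antibody recognising all human tau forms.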

| SMILES | Degradation activity* (highest amount of degradation observed at any dosage; tau protein remaining) |
| --- | --- |
| O=C1CCC(N2C(=O)c3ccc(N4CCN(CCCc5ccc(O[C@H]6C[C@H](Oc7ccc(-c8ccc9c(c8)[nH]c8ccncc89)cn7)C6)cn5)CC4)cc3C2=O)C(=O)N1 (stereo partly drawn) [Compound 64, 5-(4-(3-(5-((1r,3r)-3-((5-(5H-pyrido[4,3-b]indol-7-yl)pyridin-2-yl)oxy)cyclobutoxy)pyridin-2-yl)propyl)piperazin-1-yl)-2-(2,6-dioxopiperidin-3-yl)isoindoline-1,3-dione] | C (>80% tau protein remaining after 72 hours of incubation with the test compound) |
| O=C1CCC(N2C(=O)c3ccc(OCCCCCN4CCC(O[C@H]5C[C@H](Oc6ccc(-c7ccc8c(c7)[nH]c7ccncc78)cn6)C5)CC4)cc3C2=O)C(=O)N1 (stereo partly drawn) [Compound 65, 5-((5-(4-((1r,3r)-3-((5-(5H-pyrido[4,3-b]indol-7-yl)pyridin-2-yl)oxy)cyclobutoxy)piperidin-1-yl)pentyl)oxy)-2-(2,6-dioxopiperidin-3-yl)isoindoline-1,3-dione] | C (>80% tau protein remaining after 72 hours of incubation with the test compound) |
| O=C1CCC(N2C(=O)c3ccc(N4CCN(CCN5CCC(O[C@H]6C[C@H](Oc7ccc(-c8ccc9c(c8)[nH]c8ccncc89)cn7)C6)CC5)CC4)cc3C2=O)C(=O)N1 (stereo partly drawn) [Compound 66, 5-(4-(2-(4-((1r,3r)-3-((5-(5H-pyrido[4,3-b]indol-7-yl)pyridin-2-yl)oxy)cyclobutoxy)piperidin-1-yl)ethyl)piperazin-1-yl)-2-(2,6-dioxopiperidin-3-yl)isoindoline-1,3-dione] | C (>80% tau protein remaining after 72 hours of incubation with the test compound) |
| Cn1c2ccncc2c2ccc(-c3cnc(OCCOCCOCCOCCOCCOc4ccc5c(c4)C(=O)N(C4CCC(=O)NC4=O)C5=O)c(C(F)(F)F)c3)cc21 (stereo not drawn) [Compound 67, 2-(2,6-dioxopiperidin-3-yl)-5-((14-((5-(5-methyl-5H-pyrido[4,3-b]indol-7-yl)-3-(trifluoromethyl)pyridin-2-yl)oxy)-3,6,9,12-tetraoxatetradecyl)oxy)isoindoline-1,3-dione] | A (≤50% tau protein remaining after 72 hours of incubation with the test compound) |
| Cn1c2ccncc2c2ccc(-c3ccc(O[C@H]4C[C@H](OCCCCCN5CCN(c6ccc7c(c6)C(=O)N(C6CCC(=O)NC6=O)C7=O)CC5)C4)nc3)cc21 (stereo partly drawn) [Compound 68, 2-(2,6-dioxopiperidin-3-yl)-5-(4-(5-((1r,3r)-3-((5-(5-methyl-5H-pyrido[4,3-b]indol-7-yl)pyridin-2-yl)oxy)cyclobutoxy)pentyl)piperazin-1-yl)isoindoline-1,3-dione] | C (>80% tau protein remaining after 72 hours of incubation with the test compound) |
| Cn1c2ccncc2c2ccc(-c3cnc(OCCOCCOCCOCCOCCOc4ccc5c(c4)C(=O)N(C4CCC(=O)NC4=O)C5=O)cc3C(F)(F)F)cc21 (stereo not drawn) [Compound 69, 2-(2,6-dioxopiperidin-3-yl)-5-((14-((5-(5-methyl-5H-pyrido[4,3-b]indol-7-yl)-4-(trifluoromethyl)pyridin-2-yl)oxy)-3,6,9,12-tetraoxatetradecyl)oxy)isoindoline-1,3-dione] | A (≤50% tau protein remaining after 72 hours of incubation with the test compound) |
| Cn1c2ccncc2c2ccc(-c3ccc(O[C@H]4C[C@H](OCCOCCOCCOCCOc5ccc6c(c5)C(=O)N(C5CCC(=O)NC5=O)C6=O)C4)nc3)cc21 (stereo partly drawn) [Compound 70, 2-(2,6-dioxopiperidin-3-yl)-5-(2-(2-(2-(2-((1r,3r)-3-((5-(5-methyl-5H-pyrido[4,3-b]indol-7-yl)pyridin-2-yl)oxy)cyclobutoxy)ethoxy)ethoxy)ethoxy)ethoxy)isoindoline-1,3-dione] | A (≤50% tau protein remaining after 72 hours of incubation with the test compound) |
| Cn1c2ccncc2c2ccc(-c3ccc(C#CCOCCOCCOCCOCCOc4ccc5c(c4)C(=O)N(C4CCC(=O)NC4=O)C5=O)nc3)cc21 (stereo not drawn) [Compound 71, 2-(2,6-dioxopiperidin-3-yl)-5-((15-(5-(5-methyl-5H-pyrido[4,3-b]indol-7-yl)pyridin-2-yl)-3,6,9,12-tetraoxapentadec-14-yn-1-yl)oxy)isoindoline-1,3-dione] | A (≤50% tau protein remaining after 72 hours of incubation with the test compound) |
| O=C1CCC(N2C(=O)c3c(F)c(F)c(OCCOCCOCCOCCOCCOc4ccc(-c5ccc6c(c5)[nH]c5ccncc56)cn4)c(F)c3C2=O)C(=O)N1 (stereo not drawn) [Compound 72, 5-((14-((5-(5H-pyrido[4,3-b]indol-7-yl)pyridin-2-yl)oxy)-3,6,9,12-tetraoxatetradecyl)oxy)-2-(2,6-dioxopiperidin-3-yl)-4,6,7-trifluoroisoindoline-1,3-dione] | C (>80% tau protein remaining after 72 hours of incubation with the test compound) |
| O=C1CCC(N2C(=O)c3ccc(OCC#Cc4ccc(O[C@H]5C[C@H](Oc6ccc(-c7ccc8c(c7)[nH]c7ccncc78)cn6)C5)cn4)cc3C2=O)C(=O)N1 (stereo partly drawn) [Compound 73, 5-((3-(5-((1r,3r)-3-((5-(5H-pyrido[4,3-b]indol-7-yl)pyridin-2-yl)oxy)cyclobutoxy)pyridin-2-yl)prop-2-yn-1-yl)oxy)-2-(2,6-dioxopiperidin-3-yl)isoindoline-1,3-dione] | A (≤50% tau protein remaining after 72 hours of incubation with the test compound) |
| Cn1c2ccncc2c2ccc(-c3ccc(CCCOCCOCCOCCOCCOc4ccc5c(c4)C(=O)N(C4CCC(=O)NC4=O)C5=O)nc3)cc21 (stereo not drawn) [Compound 74, 2-(2,6-dioxopiperidin-3-yl)-5-((15-(5-(5-methyl-5H-pyrido[4,3-b]indol-7-yl)pyridin-2-yl)-3,6,9,12-tetraoxapentadecyl)oxy)isoindoline-1,3-dione] | A (≤50% tau protein remaining after 72 hours of incubation with the test compound) |
| Cn1c2ccncc2c2ccc(-c3ccc(OCCCCCOCCCCCC4CCN(c5ccc6c(c5)C(=O)N(C5CCC(=O)NC5=O)C6=O)CC4)nc3)cc21 (stereo not drawn) [Compound 75, 2-(2,6-dioxopiperidin-3-yl)-5-(4-(5-((5-((5-(5-methyl-5H-pyrido[4,3-b]indol-7-yl)pyridin-2-yl)oxy)pentyl)oxy)pentyl)piperidin-1-yl)isoindoline-1,3-dione] | C (>80% tau protein remaining after 72 hours of incubation with the test compound) |
| Cn1c2ccncc2c2ccc(-c3ccc(C#CCN4CCN(CCCOC5CN(c6ccc7c(c6)C(=O)N(C6CCC(=O)NC6=O)C7=O)C5)CC4)nc3)cc21 (stereo not drawn) [Compound 76, 2-(2,6-dioxopiperidin-3-yl)-5-(3-(3-(4-(3-(5-(5-methyl-5H-pyrido[4,3-b]indol-7-yl)pyridin-2-yl)prop-2-yn-1-yl)piperazin-1-yl)propoxy)azetidin-1-yl)isoindoline-1,3-dione] | C (>80% tau protein remaining after 72 hours of incubation with the test compound) |
| O=C1CCC(N2C(=O)c3ccc(OCCCc4ccc(O[C@H]5C[C@H](Oc6ccc(-c7ccc8c(c7)[nH]c7ccncc78)cn6)C5)cn4)cc3C2=O)C(=O)N1 (stereo partly drawn) [Compound 77, 5-(3-(5-((1r,3r)-3-((5-(5H-pyrido[4,3-b]indol-7-yl)pyridin-2-yl)oxy)cyclobutoxy)pyridin-2-yl)propoxy)-2-(2,6-dioxopiperidin-3-yl)isoindoline-1,3-dione] | C (>80% tau protein remaining after 72 hours of incubation with the test compound) |
| Cn1c2ccncc2c2ccc(-c3ccc(O[C@H]4C[C@H](OCCCCCCN5CCN(c6ccc7c(c6)C(=O)N(C6CCC(=O)NC6=O)C7=O)CC5)C4)nc3)cc21 (stereo partly drawn) [Compound 78, 2-(2,6-dioxopiperidin-3-yl)-5-(4-(6-((1r,3r)-3-((5-(5-methyl-5H-pyrido[4,3-b]indol-7-yl)pyridin-2-yl)oxy)cyclobutoxy)hexyl)piperazin-1-yl)isoindoline-1,3-dione] | C (>80% tau protein remaining after 72 hours of incubation with the test compound) |
| Cn1c2ccncc2c2ccc(-c3ccc(OCCCCCOCCCCCOC4CN(c5ccc6c(c5)C(=O)N(C5CCC(=O)NC5=O)C6=O)C4)nc3)cc21 (stereo not drawn) [Compound 79, 2-(2,6-dioxopiperidin-3-yl)-5-(3-((5-((5-((5-(5-methyl-5H-pyrido[4,3-b]indol-7-yl)pyridin-2-yl)oxy)pentyl)oxy)pentyl)oxy)azetidin-1-yl)isoindoline-1,3-dione] | A (≤50% tau protein remaining after 72 hours of incubation with the test compound) |
| Cn1c2ccncc2c2ccc(-c3ccc(OCCCCCOCCCCCN4CC(Oc5ccc6c(c5)C(=O)N(C5CCC(=O)NC5=O)C6=O)C4)nc3)cc21 (stereo not drawn) [Compound 80, 2-(2,6-dioxopiperidin-3-yl)-5-((1-(5-((5-((5-(5-methyl-5H-pyrido[4,3-b]indol-7-yl)pyridin-2-yl)oxy)pentyl)oxy)pentyl)azetidin-3-yl)oxy)isoindoline-1,3-dione] | A (≤50% tau protein remaining after 72 hours of incubation with the test compound) |
| O=C1CCC(N2C(=O)c3cc(F)c(OCCOCCOCCOCCOCCOc4ccc(-c5ccc6c(c5)[nH]c5ccncc56)cn4)cc3C2=O)C(=O)N1 (stereo not drawn) [Compound 81, 5-((14-((5-(5H-pyrido[4,3-b]indol-7-yl)pyridin-2-yl)oxy)-3,6,9,12-tetraoxatetradecyl)oxy)-2-(2,6-dioxopiperidin-3-yl)-6-fluoroisoindoline-1,3-dione] | A (≤50% tau protein remaining after 72 hours of incubation with the test compound) |
